Values of other authors as cited in US20170189402A1, “SOLID DOSAGE FORMS” (AbbVie Inc., priority 2012, published 2017).

Assays:
[1] = administered orally

Structure (SMILES): Nc1ccn([C@@H]2CS[C@H](CO)O2)c(=O)n1 [Lamivudine]
- bioavailability [1]: over 80%

Structure (SMILES): Cc1cccc(C)c1OCC(=O)N[C@@H](Cc1ccccc1)[C@@H](O)C[C@H](Cc1ccccc1)NC(=O)[C@H](C(C)C)N1CCCNC1=O [lopinavir]
- solubility: poorly soluble
